This is an account of results in ChEMBL document CHEMBL3507680, “University of Dundee, Gates Library screen for HepG2 cell viability”.

The series in a line: Human HepG2 cell viability assay in 384 well format. The conditions noted are these: HepG2 cells, read-out: Inhibition. Further details: dose 125 nL, time 70.5 hour; concentration not given beside the values. Type of series: toxicity, cell-based.
`Cc1csc(N2CCN(C3CCc4ccccc4C3)CC2)n1` (configuration not stated): the cytotoxicity at 70.5 h is 13%.
The result for `CN(C)Cc1csc(-c2nccn2CCc2cccnc2)c1` reads -8%; that for `CCCc1nnc2sc(C3CCN(CC)CC3)nn12`, -13.4%; that for `COc1ccc2c(c1)OCC(Cc1ccc(N(C)C)nc1)C2` (configuration not stated), -4.83%.
As for `N#CC1(c2ccccc2)CCN(C(=O)CN2C(=O)CCNC2=O)CC1`, the cytotoxicity at 70.5 h is -0.486%.
The result for `O=C1O[C@@H]2CN(c3ccncc3)C[C@@H]2N1CCCc1ccc(F)cc1` reads -6.08%; that for `CN1CC2(CCN(C(=O)c3cc(-n4cccn4)ccc3Cl)CC2)OC1=O`, 7.23%; that for `CCOC(=O)c1n[nH]cc1CN1CCOC(Cc2ccccc2)C1` (configuration not stated), 0.539%.
Then `O=C(c1ccc(Cn2cnnn2)cc1)N1CC[C@H](CO)[C@H](O)C1`, with -8.21%; and `c1cncc(CNc2ncnc3c2CCN(Cc2ccsc2)CC3)c1`, with -5.06%.
The result for `CCCc1nc(C)cc(NCCc2nnc(N)s2)n1` reads -12.9%; that for `CCSCC(C)NCc1cc(-c2ccco2)on1` (configuration not stated), -10.3%; that for `Cc1nc(O)cc(CCNc2nccc(CCC(F)(F)F)n2)n1`, -8.71%.
As for `Cc1ccccc1CN1CCN(C(=O)CCn2ccccc2=O)CC1`, the cytotoxicity at 70.5 h was -12.1%.
The result for `O=C1OCCN1Cc1cccc(C(F)(F)F)c1F` reads -10.3%.
For the compound `CCCn1c(C)c(CC(=O)NCC(C)O)c2c1CC(C)(C)CC2=O` (configuration not stated), the cytotoxicity at 70.5 h amounted to 2.45%.
The result for `Cc1cc(N(C)Cc2ncc[nH]2)nc(-c2cccnc2)n1` reads -11.2%; that for `CC(C)(CN1C[C@H](Nc2ncccn2)[C@@H](C2CC2)C1)N1CCOCC1`, -11.6%.
Then `CCc1ncc(C(=O)N(C)CCc2nc3cc(OC)ccc3[nH]2)cn1`, with 11.2%.
The result for `Cc1cc(C(=O)NCCc2cn3nc(C)sc3n2)c(C)o1` reads -5.61%.
As to `Cc1ccc(C(=O)O)cc1CNC(=O)CN1CC(C)(C)[C@@](C)(O)C1`, the cytotoxicity at 70.5 h was -6.75%.
Turning to `O=C(NCCCOc1cccnc1)c1cn(CCc2ccccc2)nn1`, the cytotoxicity at 70.5 h is -7.58%.
Then `OC1(Cn2ccnc2)CCN(C[C@]2(O)CCCN3CCCC[C@@H]32)CC1`, with 11.3%; and `Cc1ccc(CN2C[C@H]3OC(=O)N(Cc4ccccn4)[C@H]3C2)o1`, with 2.3%.
On to `Cc1ccc(C(=O)N2CCC(c3nccn3Cc3ccncc3)CC2)s1`, for which the cytotoxicity at 70.5 h was -8.45%.
As for `CCN1CCC(CC(=O)NCCc2nc(O)cc(O)n2)CC1`, the cytotoxicity at 70.5 h came out at 16.1%.
Turning to `CCN(Cc1cnn(C)c1)C[C@H]1CC[C@@H](Cc2ccc(C)nc2)O1`, the cytotoxicity at 70.5 h is -16.5%.
With `c1ncc(-c2cn(CCSc3cnn[nH]3)nn2)cn1`, the cytotoxicity at 70.5 h is -6.48%.
`CCOCc1nc2c(c(N3CCCn4nc(C)cc4C3)n1)CCNCC2`: the cytotoxicity at 70.5 h amounted to 23.6%.
As for `CCCc1cc(N2CCC(NCC3(O)CCN(C)CC3)CC2)nc(C)n1`, the cytotoxicity at 70.5 h was -6.43%.
As to `CN(Cc1cc2cc(F)ccc2[nH]1)C(=O)C1CC(=O)N(C2CC2)C1` (configuration not stated), the cytotoxicity at 70.5 h is -2.65%.
Consider `CCc1nc(N)sc1C(=O)N1CCC(c2cc(O)nc(C)n2)CC1`, for which the cytotoxicity at 70.5 h came to 20.6%.
Then `CC(C)CN1CCN(Cc2nc3c(s2)CCCC3)[C@H]2CS(=O)(=O)C[C@H]21`, with 10.7%; and `N#Cc1cnc(N2Cc3cnn(Cc4ccc(F)cc4)c3C2)nc1N`, with -6.63%.
`Cc1c(C(C)NC2CSCCSC2)cnn1-c1ccc(F)cc1F` (configuration not stated): the cytotoxicity at 70.5 h is -9.32%.
Then `CN1C[C@H]2CC[C@@H]1CN(C(=O)COCc1nc3cc(F)ccc3[nH]1)C2`, with 27.3%; and `COC(C)(C)CC(C)NCc1nncn1C1CCCCC1` (configuration not stated), with -7.83%; and `O=C1OC2(CCNCC2)CN1CC(=O)N1CCC1c1cccs1` (configuration not stated), with -6.81%.
On to `Cc1nc(CC(C)C)cc(C(=O)N2C[C@@H](CN(C)C)[C@@H](CO)C2)n1`, for which the cytotoxicity at 70.5 h stood at 6.25%.
Then `CCc1nc(C)c(-c2nccn2CC2CCCCO2)[nH]1` (configuration not stated), with -10.5%; and `c1cc2c(cc1Cn1cc(C3CCCNC3)nn1)CCCO2` (configuration not stated), with -15.2%.
The result for `C[C@@H]1CN(C(=O)c2cc(Cn3cnc4ccccc43)on2)C[C@H](C)O1` reads -5.79%.
As to `O=C(NCC1CCN(Cc2cc3ccccc3[nH]2)C1)C1CCCCC1` (configuration not stated), the cytotoxicity at 70.5 h is -19.6%.
On to `COc1ccc(-n2nc(C(C)C)nc2Cn2cncn2)cc1`, for which the cytotoxicity at 70.5 h was -8.35%.
Then `CSCCCN1CCC(c2nnc(Cn3ccnc3)n2C2CC2)CC1`, with -0.0518%; and `CCCN1CCC(Cc2nc(CN3CCN(C)CC3)no2)CC1`, with -5.37%.
Then `CCN(Cc1ccncc1)C(=O)c1cc(C)c(C)c(S(N)(=O)=O)c1`, with -2.98%.
Then `Cc1ncsc1CCN(C)C(=O)c1c(O)cccc1O`, with 10.9%; and `CCc1nn(C)c(Cl)c1CN1CCC(c2cc(O)nc(C)n2)CC1`, with -10.5%.
Regarding `COc1ccc(Cl)cc1-n1cnc(CCNC(C)=O)c1`, the cytotoxicity at 70.5 h was -4.49%.
The result for `COc1cccc(S(=O)(=O)N2C[C@@H](N(C)C)[C@H](C(C)C)C2)c1` reads -0.713%.
Turning to `CCn1c(CN(C)C)nnc1C1CCN(c2nccc(NC)n2)CC1`, the cytotoxicity at 70.5 h was -2.22%.
The result for `Cc1cc(NCC2CCS(=O)(=O)C2)n2nc(C)cc2n1` (configuration not stated) reads 12.6%.
Then `O=C(Nc1cnn(CC(=O)N2CCCCO2)c1)c1ccccn1`, with 2.98%; and `O=C(Cn1cccn1)NCC1CCN(Cc2cc3ccccc3[nH]2)C1` (configuration not stated), with -14.4%.
For the compound `N[C@H]1CN(C(=O)c2ccc(CO)cc2)C[C@@H]1C1CC1`, the cytotoxicity at 70.5 h was 6.41%.
Then `CN(CC1CCCCO1)c1ncnc2cc(F)ccc12` (configuration not stated), with -9.25%; and `CCc1ncc(C(=O)N(C)C(C)c2ccc3c(c2)OCCO3)cn1` (configuration not stated), with 1.19%; and `Cc1ccccc1OCC(O)C(=O)N1CCC2(CC1)CN(C)C(=O)O2` (configuration not stated), with -4.24%.
On to `O=C1CC[C@H]2CN(c3ncc(F)cn3)CC[C@H]2N1CCc1ccccc1`, for which the cytotoxicity at 70.5 h is -6.02%.
The result for `Cc1nnc(CCNC(=O)[C@H]2CNC[C@@H](C(=O)N3CCCC3)C2)s1` reads -6.7%.
Turning to `CC1(c2ccccc2)CCC(=O)N(CCN2CCOC2=O)C1` (configuration not stated), the cytotoxicity at 70.5 h was -2.39%.
As to `COCCOCC(=O)N1CCC(c2ccccc2F)C1` (configuration not stated), the cytotoxicity at 70.5 h is -9.1%.
Then `CC(C)(C)SCCNC(=O)[C@@]12CNC[C@@H]1CN(S(C)(=O)=O)C2`, with -2.8%.
Then `O=C(O)c1cc(-c2ccoc2)cc(S(=O)(=O)N2CCSCC2)c1`, with -4.7%.
With `Cc1cccc(-n2nc(CC(C)C)nc2[C@H](C)O)c1`, the cytotoxicity at 70.5 h was 16.4%.
On to `CN(CCNC(=O)c1cnc(-c2ccncc2)nc1)S(C)(=O)=O`, for which the cytotoxicity at 70.5 h is -7.17%.
The result for `O=C(CCN1CCCCC1)N1CCC(Cc2ccc(CO)cc2)C1` (configuration not stated) reads -6.38%; that for `CN(Cc1ccon1)c1nc(-c2ccccn2)nc2c1CCNCC2`, 12.3%.
The result for `O=C(CN1C(=O)CCNC1=O)N1CCOC(c2ccc(F)cc2)C1` (configuration not stated) reads -2.25%; that for `COc1cccc(-c2ncc(CN3CC[C@H]4CC[C@@H](C3)N4)s2)c1`, 9.35%; that for `CCN(Cc1ccc(-c2ccccn2)cc1)C1CCS(=O)(=O)C1` (configuration not stated), -1.78%.
Consider `O=C(NCc1csc(-c2cnccn2)n1)c1cnn2c1CCCC2`, for which the cytotoxicity at 70.5 h is -5.37%.
The result for `COCCN1CCN(C(=O)c2ccc(C)cc2F)[C@H]2CS(=O)(=O)C[C@H]21` reads -8.53%; that for `CC(C)N(CCO)C(=O)C1CCC(=O)N(CCc2cccc(F)c2)C1` (configuration not stated), -10%.
Turning to `Cc1ccc(CN2CCN(Cc3cc(C)n[nH]3)CC2CCO)cc1` (configuration not stated), the cytotoxicity at 70.5 h turned out to be 12.1%.
Take `CCn1nc(CC(C)C)cc1C(=O)N1CCCC(C#N)C1` (configuration not stated): the cytotoxicity at 70.5 h was 0.732%.
`CC(=O)N1C[C@H](NS(=O)(=O)Cc2cccc(Cl)c2)[C@@H](C(C)C)C1`: the cytotoxicity at 70.5 h was -6.96%.
Then `CCOc1ccnc(NCc2nc(C)cc(=O)[nH]2)n1`, with -6.71%; and `Cc1cc(C)c(Cn2cncn2)cc1CN1CC[C@H]2CC[C@@H](C1)N2`, with 2.8%; and `CCC[C@H]1CN(Cc2nccn2C)C[C@@H]1NC(=O)C1(COC)CCC1`, with -4.15%.
As to `O=C(NCc1cccnc1N1CCCC(O)C1)c1ccsc1` (configuration not stated), the cytotoxicity at 70.5 h was -20.7%.
With `Cc1cc2nc(C(C)C)cc(N3CCC(N(C)C)C3)n2n1` (configuration not stated), the cytotoxicity at 70.5 h was determined as 2.59%.
Consider `Cc1cc(C2CCC2)nc(N2CCC3(CC2)OCCCC3O)n1` (configuration not stated), for which the cytotoxicity at 70.5 h is -8.75%.
Regarding `Cc1[nH]nc(CCC(=O)N2C[C@H]3CC[C@@H]2CN(C(=O)N(C)C)C3)c1C`, the cytotoxicity at 70.5 h was -8.2%.
Regarding `O=C(O)CN(Cc1ccsc1)CC1CCCO1` (configuration not stated), the cytotoxicity at 70.5 h was -2.27%.
Turning to `CC1(C)CC(CN2CCC3(CCC(=O)N(C4CCC4)C3)CC2)CCO1` (configuration not stated), the cytotoxicity at 70.5 h was -9.04%.
The result for `O=C(CCCN1CCCCC1)NC(C(=O)O)c1cccc(F)c1` (configuration not stated) reads -6.49%.
In the case of `CCc1nc2c(NCC3COc4c(cccc4OC)C3)ncnc2o1` (configuration not stated), the cytotoxicity at 70.5 h was -4.9%.
Take `COCc1noc(CN2CC(Cc3ccccc3)CC2=O)n1` (configuration not stated): the cytotoxicity at 70.5 h is -20.6%.
The result for `CCc1ccc(CN(C)Cc2cnc(S(=O)(=O)CC)n2CCOC)cc1` reads -7.48%.
The result for `Cc1ccc(C(=O)N2CCC3(CCC(=O)N(C(C)C)C3)CC2)c(O)c1` reads 29.9%; that for `CC(O)c1cn(CC2CCN(C(=O)c3cscn3)CC2)nn1` (configuration not stated), -3.74%.
For the compound `CCSCCn1cc(-c2ncc[nH]2)nn1`, the cytotoxicity at 70.5 h was -17.4%.
The result for `CCOC(=O)c1coc(N2CCN(Cc3ccc(C)cc3)C(=O)C2)n1` reads 0.779%; that for `COCCN(Cc1cnn(C)c1)c1nc2c(s1)c(C)nn2C`, 3.84%.
As to `COCCn1cnnc1Cn1ccnc1-c1ccoc1`, the cytotoxicity at 70.5 h is 27.2%.
